For series [1], the system named is N87 gastric carcinoma xenografts. As to the kind of experiment: Antitumor activity in N87 (HER2 overexpressing gastric carcinoma) xenografts. In kind it is in vivo, female SCID mice. The note with it: single i.v.; for Animals with tumors in inhibition (number/group) / Animals with tumors in regression (number/group) / Mean Tumor Growth Inhibition / Regression: Day 35; for Highest Tumor Volume Recorded / Lowest Tumor Volume Recorded / Tumor Volume on Study Termination (Day 35) / Tumor Volume on Treatment Initiation (Day 0): Mean±SEM; for Tumor Volume on Treatment Initiation (Day 0): baseline. The text has this: The objective of this study was to evaluate the antitumor activity of a single administration of anti-HER2 targeted PEG-conjugated docetaxel on N87 gastric carcinoma xenografts in female SCID mice.
Animal Husbandry: Female C.B.-17 SCID mice (5-6 weeks old), purchased from Charles River Laboratories were used for this study. Upon arrival, the mice were housed in ventilated polycarbonate cages with sterile bedding at five animals per cage and acclimated for a minimum of three days. The cages were identified by cage labels or tags. Sterilized (autoclaved or irradiated) water and commercial rodent diet were supplied ad libitum. Cages, bedding and water bottles were changed at least once a week and food was replenished as needed. The animals were maintained at a temperature
Tumor Cell Preparation: All handling and preparation of cells were conducted in a biosafety cabinet for sterility and safety. N87, gastric carcinoma cells from the NEKTAR liquid nitrogen freezers were used for this study. The cells were grown in sterile tissue culture flasks with RPMI 1640 media containing 10% Fetal Bovine Serum (FBS) until 85% confluence. To prepare for implantation, the cells in the flasks were rinsed briefly with an appropriate amount of 0.25% trypsin solution. The rinsate was removed and replaced with 2 to 3 mL of fresh 0.25% trypsin solution. The flasks were then placed in a 37′C incubator for 5 minutes. When the cells dissociated, an appropriate amount of complete growth media was added to neutralize the trypsin. The suspension was centrifuged at 1000 rpm for 10 minutes after which the supernatant was discarded. The cells were washed by resuspending the pellet in an appropriate volume of serum free media. A sample was removed for counting and the rest of the suspension was again centrifuged at 1000 rpm for 10 minutes. After centrifugation, the supernatant was discarded and the cell pellet resuspended in serum free media at an appropriate volume determined by the cell count.
Tumor Cell Implantation: All handling of animals and procedures were done in a biosafety cabinet. The animals' flanks were shaved prior to the day of implantation. The mice were anesthetized via isoflurane inhalation, when in proper anesthetic plane; the flanks were wiped with 70% isopropanol followed by implantation of the NCI N87 cells at 1×10^7 cells/site in 0.2 mL volume (in 50% Matrigel®) injected subcutaneous on the right flank of the animals. The animals were distributed accordingly based on the randomization generated by the StudyLog® software.
Treatment Groups: There were 5 groups with 8 to 10 animals each. Included were vehicle (Saline), Docetaxel at 10 mg/kg and 20 mg/kg, Affibody A-linear 2 kD PEG-docetaxel 10 mg/kg (Example 6) (Docetaxel concentration) and Affibody A-linear 20 kD PEG-docetaxel at 10 mg/kg (Example 6) (Docetaxel concentration) respectively.
Treatment Administration: The animals were distributed based on the randomization generated by the StudyLog® software. The mean tumor volumes on treatment day (Day 0) ranged from 209±8 mm^3 to 239±15 mm^3 (Mean±SEM). All test articles were diluted in sterile saline to the appropriate concentration and were administered as single dose to the appropriate treatment group via intravenous injection (i.v.). Animals were warmed in clear acrylic hotboxes to facilitate venous dilation. While in the hotboxes, the animals were closely observed for signs of overheating and distress. When the animals were amply warmed, they were removed from the hotboxes and transferred into appropriate mouse restrainers. The tails were wiped with alcohol pads and the test article in a syringe with a 27 gauge needle was injected into the lateral tail vein. Maximum treatment volume for the i.v. injections will not exceed 20 mL/kg.
Tumor Measurements and Body Weights: Tumors size was monitored at least twice weekly. Dimensions (length and the width) were measured using digital calipers. Tumor volume was computed using the formula: […]

The subject of series [2] is SKOV-3 cells (Her2 positive). As to the kind of experiment: In vitro cytotoxic activity (CytoTox-Glo), SKOV-3. In kind it is cell-based. The settings on record: Homo sapiens, SK-OV-3; SKOV3, 48 hours, medium pH 6.5. On the procedure: (§1) The conjugates were also tested in a Her2 negative cell line, […] as an experimental control. Serial dilutions of the conjugates and control compound were prepared. Cells were lifted from the flask using 2 mL of trypsin for 5 min, neutralized with 8 mL of complete growth medium, and centrifuged at 1200 rpm for 5 min. The supernatant was aspirated and the cell pellet was washed with PBS, centrifuged, then resuspended in complete growth medium (McCoy's for SKOV3 and RPMI-1640 for N87 and SK-N-SH, supplemented with 10% heat inactivated FBS), pH 6.5. Cells were counted, diluted, and then plated in white, clear bottom 96-well plates at a density of 20,000 cells/well, then followed immediately by addition of conjugates and control compound. Cells were incubated with the test articles for 48 hours in a 37° C., 5% CO^2 incubator, and then analyzed for cytotoxic activity using Promega CytoTox-Glo chemiluminescent reagent (Cat#G9291). Signal was quantified with a Perkin Elmer TopCount plate reader, and the data was analyzed using the GraphPad Prism software. FIGS. 4, 5, and 6 are linear regression graphs for each cell line where mean RLU is plotted vs. concentration.

For series [3], the system named is SK-N-SH cells (Her2 negative). As to the kind of experiment: In vitro cytotoxic activity (CytoTox-Glo), SK-N-SH. The note with it: Homo sapiens, 48 hours, medium pH 6.5. In kind it is cell-based. The method, then:
as §1

Series [4] in a line: Body weight in the N87 xenograft study. In kind it is in vivo, female SCID mice. On the procedure: Where: L=length of the tumor in millimeters and W=width of the tumor in millimeters Tumor growth on each animal was monitored to a maximum volume of […]. Animals were weighed prior to implantation and at least twice weekly for the duration of the study.
Mean body weights ranged from 19.6±0.4 g to 20.7±0.5 g (Mean±SEM) on treatment day (FIG. 10). Greatest mean body weight loss observed was 4% in group 3 (docetaxel, 20 mg·kg) on day 4 followed by group 2 (Docetaxel, 10 mg/kg) at 2% observed on days 4 and 7 (FIG. 11). No abnormal clinical observations were noted throughout the study.

Series [5] deals with NCI-N87 cells (Her2 positive). In words: In vitro cytotoxic activity (CytoTox-Glo), NCI-N87. In kind it is cell-based. The note with it: Homo sapiens, N87, 48 hours, medium pH 6.5. On the procedure: as §1

pEC50: −log10 of the molar value.

As usually defined, the pEC50 is −log10 of the EC50, conventionally taken in molar units. Take `CC(=O)O[C@@]12CO[C@@H]1C[C@H](O)[C@@]1(C)C(=O)[C@H](O)C3=C(C)[C@@H](OC(=O)[C@H](O)[C@@H](NC(=O)OC(C)(C)C)c4ccccc4)C[C@@](O)([C@@H](OC(=O)c4ccccc4)[C@H]21)C3(C)C` [Docetaxel, reference compound]: in series [1] (Docetaxel Dose 10 mg/kg), the “Animals with tumors in inhibition (number/group)” value is reported as “(9/10)”, the “Animals with tumors in regression (number/group)” value is recorded as “(1/10)”, the “Mean Tumor Growth Inhibition” value came to 67.5% and the Regression amounted to 26%. Besides, in series [1] (Docetaxel Dose 10 mg/kg), the “Highest Tumor Volume Recorded” value is 452 ± 80 mm^3, the “Lowest Tumor Volume Recorded” value was 182 ± 25 mm^3, the “Tumor Volume on Study Termination (Day 35)” value was 452 ± 80 mm^3 and the “Tumor Volume on Treatment Initiation (Day 0)” value is 224 ± 19 mm^3. Besides, in series [1] (Docetaxel Dose 20 mg/kg), the “Animals with tumors in inhibition (number/group)” value is “(9/10)”, the “Animals with tumors in regression (number/group)” value is given as “(1/10)”, the “Mean Tumor Growth Inhibition” value was 85% and the Regression came out at 10%. In series [1] (Docetaxel Dose 20 mg/kg), the “Highest Tumor Volume Recorded” value is on record as 330 ± 33 mm^3, the “Lowest Tumor Volume Recorded” value came out at 145 ± 8 mm^3, the “Tumor Volume on Study Termination (Day 35)” value is given as 330 ± 33 mm^3 and the “Tumor Volume on Treatment Initiation (Day 0)” value came out at 225 ± 12 mm^3. In addition, in series [2], the pEC50 was 8.72. This compound had a pEC50 in series [3] of 8.71. In addition, the “Mean body weight loss” value in series [4] (10 mg/kg, days 4 and 7) is reported as 2%. Besides, in series [4] (20 mg·kg, day 4), the “Greatest mean body weight loss” value was found to be 4%. The compound also gave a pEC50 in series [5] of 11.26.

The record behind these values is patent US20190030182A1, “WATER-SOLUBLE POLYMER-LINKED BINDING MOIETY AND DRUG COMPOUNDS” (Nektar Therapeutics, priority 2011, published 2019).
